Series [1] in a line: Blood chemistry analysis (serum triglyceride, total cholesterol) in hypercholesterolemic rabbits. In kind it is in vivo, rabbit. To be noted: week 12; rabbits on 0.5% cholesterol chow plus 1% extract, 10 mg/kg pure compound or 10 mg/kg lovastatin; vs high fat diet group. Here is the method:
(§1) 2 to 3 kg male, New Zealand White rabbits were individually caged and housed in temperature and humidity-controlled rooms. Light-dark cycles were 12 h each. After several days of acclimation, the animals were sequentially assigned to six feeding groups: standard rabbit chow (ND), standard rabbit chow containing 0.5% cholesterol (HF), standard rabbit chow containing both 0.5% cholesterol and 10 mg/kg Lovastatin (L), standard rabbit chow containing both 0.5% cholesterol and 1% ARH003 (ARH003), standard rabbit chow containing both 0.5% cholesterol and 1% ARH004 (ARH004), standard rabbit chow containing both 0.5% cholesterol and 10 mg/kg Pure compound (P).
(§2) Except standard rabbit chow, others groups were given standard rabbit chow containing 0.5% cholesterol for 4 weeks. The daily feeding amount for each rabbit was 50 g/kg body weight per day.
(§3) Diets were administered for 8 weeks, after the animals had adjusted to their new environment. At the beginning and end of the 12 weeks study, the rabbits were anesthetized by an intramuscular injection of Zoletil 50 (1 mL/kg) (Virbac Ltd., France), and blood samples were harvested. Finally, the aortas (from aortic arch to the bifurcation of the iliac arteries) and whole livers were collected from the rabbits after they were sacrificed for further histopathological analyses.
The animals were fasted overnight before blood drawing. […]

The nature of series [2]: Body weight in hypercholesterolemic rabbit model. In kind it is in vivo. The conditions noted are these: rabbits on chow with 0.5% cholesterol plus 1% extract, 10 mg/kg pure compound or 10 mg/kg lovastatin; during the intervention. Here is the method: as §1, §2, §3

Structures are written as SMILES.

As to `CC[C@H](C)C(=O)O[C@H]1C[C@@H](C)C=C2C=C[C@H](C)[C@H](CC[C@@H]3C[C@@H](O)CC(=O)O3)[C@H]21` [lovastatin], the “serum total cholesterol levels” value in series [1] is recorded as “higher”. Further, the body weight gains result in series [2] is listed as “did not affect”.

These data come from patent US12636292B2, “Method and composition for reversing and/or inhibiting atherosclerosis” (ARJIL BIOTECH HOLDING COMPANY LIMITED, priority 2019, dated 2026).
